{
  "source": "patent US20060211628A1",
  "about": "(priority 2002, published 2006)",
  "key": {"MOG-induced EAE": {"tested_on": "MOG-induced EAE", "experiment": "Prevention of MOG-induced experimental autoimmune encephalomyelitis (EAE)", "format": "in vivo, C3H.SW female mice", "conditions": "200 mg/kg IP twice a day plus 300 mg/kg in drinking water", "protocol": "EAE was induced in C3H.SW female mice (4-6 weeks old, Harlen, Rehovot, Israel) by immunization with the peptide encompassing amino acids 35-55 of rat myelin oligodendrocyte glycoprotein (MOG). Synthesis was carried out by the Weizmann Institute Synthesis Unit, using a solid-phase technique on a peptide synthesizer (Applied Biosystems Inc., Foster City, Calif. City). Mice were injected subcutaneously at one site in the flank with a 200 μl emulsion containing 75 μg MOG peptide in complete Freund's adjuvant (CFA). An identical booster immunization was given at one site of the other flank one week later. Mice (n=16) were injected intraperitonealy with Compound J (200 mg/kg) twice a day and in addition, were given Compound J orally in the drinking water (300 mg/kg) on day 1 of the MOG injection and for additional 35 days post injection. Control mice (n=16) were injected twice a day with 200 mg of saline for the same time period. 0=no clinical symptom's; 1=loss of tail tonicity; 2=partial hind limb paralysis; 3=complete hind limb paralysis; 4=paralysis of four limbs; 5=total paralysis; 6=death."}, "[1]": {"tested_on": "Neuroblastoma SHSY5Y (NB) cells", "experiment": "Protection from oxidative stress in vitro, neutral red survival assay", "format": "cell-based", "conditions": "compound at 0.1 mM", "protocol": "Protection from oxidative stress in vitro: Neuroblastoma SHSY5Y (NB) cells were maintained in Dulbeco's Modified Eagle's Medium (DMEM), supplemented with 8% FCS and 8% horse serum, penicillin (25 μg/ml), streptomycin (25 μg/ml), 2 mM L-glutamine and 400 μg/ml G418 (Gibco/BRL). For protection experiments cells were subcultured (in 2% serum) to poly-L-lysine-coated 96-well microtiter plates (Nunc), 100 μl of 5×10^5 cells/ml, CEA was applied to the cells in each well and 4 hours later DA, L-dopa (levodopa), 6-OHDA and MPP+ were added for 24 hours.\nSurvival was assayed by adding neutral red (0.34%, Sigma) to cells in DCCM-1 medium (0.1 ml/well, Bet-Haemek) and incubation for 2 hour at 37° C. The cells were then washed with cold PBS containing 10 mM MgCl2 and the dye was dissolved in 50% ethanol in 50% Somerson buffer (70 mM sodium citrate, 30 mM citric acid, 0.1 N HCl). ELISA reader (590 nm) was used to measure the remaining color intensity."}, "[2]": {"experiment": "Crossing the blood-brain-barrier: compound J level in brain extracts by fluorescent labeling and HPLC", "format": "in vivo, C57BL/6J mice", "conditions": "IP injection 0.25-4 mg, brain extracts 15 min later", "protocol": "Detection of compound j (referred to in this Example also as CEA) was established using high performance liquid chromatography (HPLC). To this end, CEA was treated with a fluorescent thiolyte reagent (monobromobimane reagent) and analyzed on an HPLC column.\nCrossing the blood-brain-barrier: In vivo experiments were carried out on C57BL/6J mice (15 grams) injected IP with compound J. After incubation (15 min, 60 min or 4 hours) the mice were anesthetized with ether and blood samples were drawn. Then mice underwent perfusion with 50 ml of saline, injected into the right ventricle. The levels of compound I in the brain and in the plasma were detected by selective fluorescent labeling using high performance liquid chromatography (HPLC).\nIncreasing amounts of compound J were injected IP and 15 min later, mice were perfused with saline and compound J levels in the brain extracts were determined by HPLC chromatography (FIG. 5b), as compared to a control, pure, uninjected compound J (FIG. 5a)."}, "GSH": {"tested_on": "GSH", "experiment": "Brain GSH levels after IP injection of compound J (HPLC)", "format": "in vivo, C57BL/6J mice", "conditions": "brain extract after IP injection"}, "[3]": {"tested_on": "endogenous reduced glutathione (GSH)", "experiment": "In vivo antioxidation: striatum/serum endogenous GSH after IP injection of compound A", "parameters": "species or system Balb/c mice", "conditions": "injected IP, 100-300 mg/kg, three hours post injection", "protocol": "With reference now to FIG. 3. To this end, three groups of two months old Balb/c mice containing two animals in each group were injected intraperitonealy (IP) with 100-300 mg/kg body weight of compound A. Blood samples were drawn from the tail three hours post injection and then the animals were sacrificed and either the corpus striatum or the whole brain were removed and analyzed for GSH levels.\nGSH levels were determined using the experimental procedures as described hereinbelow and/or the GSH-400 kit (Oxis International, Inc.).\nPreparation of brain homogenates: Animals were rapidly killed and exsanguinated to remove excess blood from the brain. The brain of each animal was rinsed in a beaker containing water, lightly blotted to dry and were weighted. The striatums were transferred into a hand-homogenizer tube and each was homogenized using a constant number (e.g., 20) of up and down strokes of the hand-homogenizer pestle. Each of the homogenates was poured into a centrifuge tube and centrifuged for 10,000×g for 5 min. The supernatant was used for GSH determination as follows.\nGSHAssay: For each measurement, 200 μl of sample were incubated with 20 μl DTNB [5,5′ dithio bis(2-nitrobenzoic acid)] for 1 hour in 37° C. Final absorbance was measured at 400 nm. Similar results were obtained using the GSH-400 kit. […]"}, "[4]": {"conditions": "in vivo; cited from earlier work"}},
  "data": [
    {"smiles": "CC(=O)NC(CS)C(N)=O", "note": "(centres unmarked) [compound J]", "values": [
      {"measurement": "Incidence and clinical severity of the disease", "setting": "MOG-induced EAE", "value": "markedly reduced"},
      {"measurement": "Mice remaining disease free", "setting": "MOG-induced EAE; day 1 to 35 days post injection, n=16", "value": "15 out of the 16"},
      {"measurement": "Mean of total clinical score (0-6 scale)", "setting": "MOG-induced EAE; n=16, SE", "value": "0.1+0.1"},
      {"measurement": "Protection of NB cells against the toxicity of DA, L-dopa, 6-OHDA (0.1-0.25 mM) and MPP+ (0.5-2 mM)", "setting": "[1]", "value": "protect"},
      {"measurement": "Compound J in the brain", "setting": "[2]", "value": "concentration-dependent increase"},
      {"measurement": "GSH levels increase over untreated animals", "setting": "GSH", "value": "up to 46%"}
    ]},
    {"smiles": "CCOC(=O)[C@H](CS)NC(C)=O", "note": "[compound A, N-acetyl cysteine ethyl ester]", "values": [
      {"measurement": "Level of endogenous GSH in striatum", "setting": "[3]", "value": "increases"}
    ]},
    {"smiles": "CC(=O)N[C@@H](CS)C(=O)O", "note": "[N-acetyl-cysteine]", "values": [
      {"measurement": "lethal dose 50% (LD50)", "setting": "[4]", "value": "5,050 mg/kg"}
    ]}
  ]
}
